The assay has as its system artificial thrombosis. As to the kind of experiment: Fibrinolysis of artificial thrombosis (Chandler's method) with ultrasonic catheter. Conditions: for time for achieving 20% fibrinolysis: FIG. 4, thrombosis from blood of one person, urokinase 1200 IU/ml. More on the design: species or system human. The protocol: An artificial thrombosis was formed by Chandler's method. Blood (1 ml) that was collected from healthy humans (two persons) was entered into a flexible tube (inside diameter 3 mm, length 265 mm) and thereto was added calcium chloride, and then the tube was made a loop like shape, which was rotated at 12 rpm for 20 minutes to give an artificial thrombosis model.
A ceramic ultrasonic element (width 2 mm, length 5 mm, thickness 1 mm) was inserted into the tip of a catheter (diameter 2 mm), and an oscillating element was connected to an oscillator provided outside with a fine connector passed through the catheter. A fine tube for pouring a test solution was provided at an opening opposite to the opening of the catheter end.
The artificial thrombosis prepared above was added to a test tube together with blood, and the ultrasonic catheter was inserted into the test tube so that the end of the catheter was set close to the portion of the artificial thrombosis (at a distance of about 5 mm), and to the test tube a mixture of urokinase and a booster prepared in Example 1 was added at a rate of 1 ml per minute, wherein urokinase (concentration 1200 IU/ml) and the booster were mixed immediately before pouring at a mixing ration of 1:1 by weight. The mixture was refluxed while keeping the volume of the test solution at a constant level by removing excess volume of the solution by suction. The ultrasound (170 KHz) was exposed to the mixture by a pulse method (exposed for 2 seconds and stopped for 4 seconds) for 2 minutes (total exposing time 40 seconds). After the exposure, the ultrasonic catheter was removed from the test tube, and the mixture was incubated at 37 degrees C. for 5 to 120 minutes, washed with a physiological saline solution several times and dried overnight. Thereafter, the dried mixture was weighed. As a control, the above was repeated by using only a physiological saline solution.
The rate of fibrinolysis was calculated by the following equation: […]
The results are shown in the accompanying FIGS. 4 and 5 wherein there are shown in average of twice tests.

Results on 1 substance are retold here after patent US20080274097A1, “BOOSTER FOR THERAPY OF DISEASES WITH ULTRASOUND AND PHARMACEUTICAL LIQUID COMPOSITION CONTAINING THE SAME” (priority 1991, published 2008).

Consider urokinase, for which the “time for achieving 20% fibrinolysis” value by setting is: (with exposure of ultrasound (170 KHz, pulse, 2 minutes)) 30 min; (without exposure of ultrasound) 45 min. For the same substance, where the note is “FIG. 5, thrombosis from blood of another person, with exposure of ultrasound, energy reduced by 15%”, the “treatment time at which 50% fibrinolysis was achieved” value is 60 min.
